In ChEMBL document CHEMBL1201862, “PubChem BioAssay data set” (2004) one finds EC50, IC50 and AC50 data, which are given here for 4 compounds.

Activity calls are given as the source filed them.

The target of experiment [1] is T1, RNA-binding protein pos-1 (Caenorhabditis elegans, UniProt G5EF15).
T1 sequence (G5EF15 whole entry): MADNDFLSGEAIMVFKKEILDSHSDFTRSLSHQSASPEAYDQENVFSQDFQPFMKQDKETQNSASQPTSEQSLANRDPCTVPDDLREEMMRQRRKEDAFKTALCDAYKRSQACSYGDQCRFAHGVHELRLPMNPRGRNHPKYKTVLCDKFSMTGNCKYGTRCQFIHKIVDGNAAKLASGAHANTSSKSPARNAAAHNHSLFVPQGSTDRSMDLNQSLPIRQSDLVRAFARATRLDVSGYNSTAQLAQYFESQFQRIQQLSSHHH
Kind of experiment: inhibitors of POS-1/mex-3 RNA binding, dose response, biochemical, fluorescence polarization (AID 1964).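 Note: purified POS-1 fused to maltose binding protein made in E. coli; potency of compounds blocking POS-1 binding to fluorescent RNA.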

In experiment [2] the target is T2, Zinc finger protein mex-5 (Caenorhabditis elegans, UniProt Q9XUB2).
T2 sequence (Q9XUB2 whole entry): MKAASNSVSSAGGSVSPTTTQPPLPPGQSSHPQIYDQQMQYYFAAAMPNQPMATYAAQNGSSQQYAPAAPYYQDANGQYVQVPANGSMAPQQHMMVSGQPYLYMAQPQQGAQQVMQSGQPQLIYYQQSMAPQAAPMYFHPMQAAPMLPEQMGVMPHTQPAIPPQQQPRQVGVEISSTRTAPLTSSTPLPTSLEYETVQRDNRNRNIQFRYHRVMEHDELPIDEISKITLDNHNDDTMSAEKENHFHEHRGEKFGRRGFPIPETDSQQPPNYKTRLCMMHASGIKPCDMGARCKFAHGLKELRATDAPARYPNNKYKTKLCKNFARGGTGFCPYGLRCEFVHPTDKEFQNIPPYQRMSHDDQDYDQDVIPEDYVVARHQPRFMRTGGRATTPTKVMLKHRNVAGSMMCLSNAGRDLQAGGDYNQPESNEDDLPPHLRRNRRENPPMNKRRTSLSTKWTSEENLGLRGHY
Kind of experiment: MEX-5/TCR-2 RNA interaction inhibitors, dose response, biochemical, C. elegans, fluorescence polarization (AID 1960).

In a further experiment the target is T3, Estrogen receptor (Homo sapiens, UniProt P03372).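 Note: potency for inhibiting coactivator peptide recruitment to the receptor.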
T3 sequence (P03372 whole entry): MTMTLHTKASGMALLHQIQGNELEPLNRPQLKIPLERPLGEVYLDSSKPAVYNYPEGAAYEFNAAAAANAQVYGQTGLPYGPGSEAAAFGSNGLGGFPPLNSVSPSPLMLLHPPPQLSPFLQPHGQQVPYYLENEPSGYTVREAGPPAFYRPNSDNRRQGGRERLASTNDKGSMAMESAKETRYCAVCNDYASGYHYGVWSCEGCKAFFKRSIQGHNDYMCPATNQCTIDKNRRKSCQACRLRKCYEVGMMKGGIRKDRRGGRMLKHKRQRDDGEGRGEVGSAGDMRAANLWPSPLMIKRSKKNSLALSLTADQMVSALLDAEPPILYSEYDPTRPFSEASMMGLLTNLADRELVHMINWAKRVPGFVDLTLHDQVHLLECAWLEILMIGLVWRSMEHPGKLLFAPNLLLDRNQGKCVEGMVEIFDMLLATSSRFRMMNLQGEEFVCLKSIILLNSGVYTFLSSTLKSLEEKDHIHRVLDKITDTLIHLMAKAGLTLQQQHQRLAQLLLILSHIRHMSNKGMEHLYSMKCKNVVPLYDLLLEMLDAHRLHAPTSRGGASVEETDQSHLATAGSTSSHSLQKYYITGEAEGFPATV

In experiment [3] the target is T4, Polyadenylate-binding protein 1 (Homo sapiens, UniProt P11940). Kind of experiment: PABP1 MLLE–PAM2 interaction inhibitors, dose response, miRNA deadenylation inhibitor project, biochemical, fluorescence polarization, Cy5-PAM2 peptide, secondary (AID 602260). The format is functional. As to conditions: read-out: IC50_Mean.
T4 sequence (P11940 whole entry): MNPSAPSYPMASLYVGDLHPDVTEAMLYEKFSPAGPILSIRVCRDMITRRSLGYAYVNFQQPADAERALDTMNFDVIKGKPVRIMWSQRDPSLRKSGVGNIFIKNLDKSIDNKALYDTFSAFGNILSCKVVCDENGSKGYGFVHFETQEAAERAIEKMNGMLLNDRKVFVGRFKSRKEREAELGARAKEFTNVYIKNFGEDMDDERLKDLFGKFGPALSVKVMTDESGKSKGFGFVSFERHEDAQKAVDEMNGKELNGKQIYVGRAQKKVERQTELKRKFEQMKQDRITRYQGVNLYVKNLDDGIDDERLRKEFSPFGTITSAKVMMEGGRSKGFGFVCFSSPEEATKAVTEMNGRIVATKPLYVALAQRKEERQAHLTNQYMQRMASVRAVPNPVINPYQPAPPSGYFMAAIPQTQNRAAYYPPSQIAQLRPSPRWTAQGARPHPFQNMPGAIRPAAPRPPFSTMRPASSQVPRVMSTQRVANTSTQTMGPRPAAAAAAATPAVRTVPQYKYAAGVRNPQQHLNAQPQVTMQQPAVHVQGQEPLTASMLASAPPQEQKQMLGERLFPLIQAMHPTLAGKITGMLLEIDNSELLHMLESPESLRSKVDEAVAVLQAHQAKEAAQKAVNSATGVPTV
In experiment [4] the target is T4, Polyadenylate-binding protein 1. Kind of experiment: PABP1 MLLE–PAM2 binding inhibitor potency, dose response, biochemical, fluorescence polarization, FITC-PAM2 peptide (AID 602259). The format is functional. As to conditions: read-out: IC50_Mean.
In a further experiment the target is Caspase-9 (Homo sapiens, UniProt P55211). Kind of experiment: caspase-9 enzyme inhibition, dose response, selectivity assay for caspase-6 inhibitor project, biochemical, fluorescence, plate reader, cherry-picked samples (AID 743293).
Chain of Caspase-9 (P55211 1-315 limits assumed): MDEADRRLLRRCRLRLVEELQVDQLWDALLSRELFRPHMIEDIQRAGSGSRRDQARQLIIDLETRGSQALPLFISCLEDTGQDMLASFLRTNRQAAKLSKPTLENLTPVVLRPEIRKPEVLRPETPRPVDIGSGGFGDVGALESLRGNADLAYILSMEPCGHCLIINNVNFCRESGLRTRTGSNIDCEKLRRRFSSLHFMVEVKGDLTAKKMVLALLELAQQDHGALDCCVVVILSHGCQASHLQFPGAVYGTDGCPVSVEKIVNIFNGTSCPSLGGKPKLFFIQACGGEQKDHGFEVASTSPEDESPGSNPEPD
Chain of Caspase-9 (P55211 331-416 limits assumed): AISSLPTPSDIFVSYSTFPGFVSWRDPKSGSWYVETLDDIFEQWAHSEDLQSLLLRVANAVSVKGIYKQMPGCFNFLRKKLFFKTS
For experiment [5], the target named is Tyrosyl-DNA phosphodiesterase 2 (Homo sapiens, UniProt O95551). Kind of experiment: human TDP2 enzyme inhibitors, dose response, biochemical, epi absorbance, IC50 (AID 743297).
Chain of Tyrosyl-DNA phosphodiesterase 2 (O95551 whole entry, the tested form may be a part): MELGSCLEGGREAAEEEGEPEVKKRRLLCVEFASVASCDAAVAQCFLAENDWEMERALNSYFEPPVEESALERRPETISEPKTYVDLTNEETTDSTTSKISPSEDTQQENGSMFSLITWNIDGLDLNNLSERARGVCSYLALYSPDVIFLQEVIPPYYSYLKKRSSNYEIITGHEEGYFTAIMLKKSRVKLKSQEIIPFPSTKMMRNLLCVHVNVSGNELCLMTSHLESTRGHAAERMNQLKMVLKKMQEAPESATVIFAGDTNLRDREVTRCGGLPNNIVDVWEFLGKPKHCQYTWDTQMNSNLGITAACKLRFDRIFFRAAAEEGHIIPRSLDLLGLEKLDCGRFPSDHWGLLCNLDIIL
Experiment [6] in a line: ARNT/TACC3 interaction disruptors, potency, confirmation, biochemical, AlphaScreen, cherry-picked samples (AID 651703).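 Note: His-tagged ARNT PAS-B domain paired with GST-TACC3 E629A dimer coactivator fragment; potency of inhibitors that break up the complex and lower AlphaScreen signal.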 The format is functional, Homo sapiens.
Experiment [7] deals with Serine/threonine-protein phosphatase PP1-alpha catalytic subunit (Homo sapiens, UniProt P62136). Kind of experiment: PP1 phosphatase inhibitors, dose response, biochemical, fluorescence (AID 2394).
Chain of Serine/threonine-protein phosphatase PP1-alpha catalytic subunit (P62136 whole entry): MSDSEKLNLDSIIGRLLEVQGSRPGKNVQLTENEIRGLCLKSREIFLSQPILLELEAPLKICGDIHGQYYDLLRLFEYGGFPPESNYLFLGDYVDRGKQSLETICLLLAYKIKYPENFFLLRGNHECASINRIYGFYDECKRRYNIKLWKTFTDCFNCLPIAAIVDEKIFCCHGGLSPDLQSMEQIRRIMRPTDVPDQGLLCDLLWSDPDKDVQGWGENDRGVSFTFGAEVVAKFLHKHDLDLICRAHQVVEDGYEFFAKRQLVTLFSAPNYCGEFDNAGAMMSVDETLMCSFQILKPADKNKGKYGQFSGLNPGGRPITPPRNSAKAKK
Experiment [8] addresses T5, Mannose-6-phosphate isomerase (Homo sapiens, UniProt P34949).
T5 sequence (P34949 whole entry): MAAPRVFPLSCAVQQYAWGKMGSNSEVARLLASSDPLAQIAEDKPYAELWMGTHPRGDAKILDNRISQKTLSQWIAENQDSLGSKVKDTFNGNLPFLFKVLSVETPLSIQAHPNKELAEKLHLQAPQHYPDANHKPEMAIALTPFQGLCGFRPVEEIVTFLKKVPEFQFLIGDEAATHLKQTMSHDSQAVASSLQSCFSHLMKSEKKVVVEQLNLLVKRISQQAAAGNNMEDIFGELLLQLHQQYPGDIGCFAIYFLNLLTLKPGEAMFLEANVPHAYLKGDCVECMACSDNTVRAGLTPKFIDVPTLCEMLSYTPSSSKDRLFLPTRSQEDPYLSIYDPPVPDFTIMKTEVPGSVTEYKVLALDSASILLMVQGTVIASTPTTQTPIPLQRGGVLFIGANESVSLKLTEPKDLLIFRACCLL
Kind of experiment: human PMI inhibitors, high substrate, primary screen, biochemical, fluorescence intensity, high mannose 6-phosphate (AID 1220).

The target in experiment [9] is T6, Sentrin-specific protease 8 (Homo sapiens, UniProt Q96LD8).
T6 sequence (Q96LD8 whole entry): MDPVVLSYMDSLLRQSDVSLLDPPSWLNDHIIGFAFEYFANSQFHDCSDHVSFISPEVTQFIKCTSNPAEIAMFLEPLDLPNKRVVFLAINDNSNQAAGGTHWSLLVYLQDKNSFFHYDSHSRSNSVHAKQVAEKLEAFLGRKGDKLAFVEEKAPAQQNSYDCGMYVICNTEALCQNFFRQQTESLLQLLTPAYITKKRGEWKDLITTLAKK
Type of experiment: functional.

Experiment [10] has as its target T6, Sentrin-specific protease 8. Type of experiment: functional. The source holds these as a separate data set.

For the compound `O=C(O)c1ccc2c(c1)[C@@H]1C=CC[C@@H]1[C@H](c1ccccn1)N2`, the EC50 in experiment [1] is 4.61 µM (inconclusive); in [2], 31.1 µM (inconclusive). In addition, the IC50 on Estrogen receptor is 9.53 µM (active); in experiment [3] it was > 66 µM (inactive); in experiment [4], 53.3 µM (inactive).
For the compound `Oc1nc(Nc2ccc(F)cc2)cc2ccccc12`, on Caspase-9, the AC50 is 3.04 µM (active). Further, the IC50 in experiment [5] is 7.66 µM (active).
With `CCN(CC)CCOc1ccc2c(c1)C(=NNC(=O)c1ccccn1)c1cc(OCCN(CC)CC)ccc1-2`, the AC50 in experiment [6] was 109 µM (active).
`CN(C)c1cc(N/N=C\c2ccccc2)nc(N(C)C)n1`: the IC50 in experiment [7] was > 67 µM (not active); in [8], > 50 µM (not active); in experiment [9], 0.368 µM (active); in experiment [10], 0.661 µM (active).
